# Read-outs that look alike come from different tables or passages of the source.
# Tests used:
# Type in all cases: cell-based
# BaF3_HER2YVMA cells = assay: Cell growth inhibition assay, BaF3_HER2YVMA; settings: BaF3_HER2YVMA cells, 3 days treatment, CellTiterGlo 2.0, read-out: HER2-YVMA IC50 (nM), cell growth inhibition
# BaF3_HER2WT cells = assay: Cell growth inhibition assay, BaF3_HER2WT; settings: 3 days treatment, CellTiterGlo 2.0, read-out: HER2 WT IC50 (nM), cell growth inhibition
# BaF3_EGFRWT cells = assay: Cell growth inhibition assay, BaF3_EGFRWT; settings: 80 ng/mL recombinant human EGF, 3 days treatment, CellTiterGlo 2.0, read-out: EGFR WT IC50 (nM), cell growth inhibition
IC50 (BaF3_HER2YVMA cells) [nM],IC50 (BaF3_HER2WT cells) [nM],IC50 (BaF3_EGFRWT cells) [nM],IC50 (BaF3_HER2YVMA cells; 72 h) [nM],IC50 (BaF3_HER2WT cells; 72 h) [nM],IC50 (BaF3_EGFRWT cells; 72 h) [nM],SMILES
500 to 1500,< 200,1500 to 5000,–,–,–,"Cc1cc(Nc2ncnn3ccc(C4CCN(C(=O)/C=C/CN(C)C)C4)c23)ccc1Oc1ccn2ncnc2c1 (single isomer, unassigned) [Examples 99 and 100, second eluting isomer, (E)-1-(3-(4-((4-([1,2,4]triazolo[1,5-a]pyridin-7-yloxy)-3-methylphenyl)amino)pyrrolo[2,1-f][1,2,4]triazin-5-yl)pyrrolidin-1-yl)-4-(dimethylamino)but-2-en-1-one]"
–,–,–,< 200,< 200,1500 to 5000,"Cc1cc(Nc2ncnn3ccc(C4CCN(C(=O)/C=C/CN5CCC6(COC6)C5)CC4)c23)ccc1Oc1ccn2ncnc2c1 [Example 120, E-1-(4-(4-((4-([1,2,4]triazolo[1,5-a]-208-midazol-7-yloxy)-3-methylphenyl)amino)pyrrolo[2,1-f][1,2,4]triazin-5-yl)piperidin-1-yl)-4-(2-oxa-6-azaspiro[3.4]octan-6-yl)but-2-en-1-one]"
–,–,–,< 200,< 200,500 to 1500,"C=CC(=O)N1CC(c2ccn3ncnc(Nc4ccc(Oc5ccn6ncnc6c5)c(C)c4)c23)C1 [Example 3, 1-(3-(4-((4-([1,2,4]triazolo[1,5-a]pyridin-7-yloxy)-3-methylphenyl)amino)pyrrolo[2,1-f][1,2,4]triazin-5-yl)azetidin-1-yl)prop-2-en-1-one]"
–,–,–,500 to 1500,< 200,1500 to 5000,"Cc1cc(Nc2ncnn3ccc(N4CCC(N(C)C(=O)/C=C/CN(C)C)CC4)c23)ccc1Oc1ccn2ncnc2c1 [Example 73, (E)-N-(1-(4-((4-([1,2,4]triazolo[1,5-a]pyridin-7-yloxy)-3-methylphenyl)amino)pyrrolo[2,1-f][1,2,4]triazin-5-yl)piperidin-4-yl)-4-(dimethylamino)-N-methylbut-2-enamide]"
–,–,–,1500 to 5000,200 to 500,1500 to 5000,"C=CC(=O)N1CC(N(C)c2ccn3ncnc(Nc4ccc(Oc5ccn6ncnc6c5)c(C)c4)c23)C1 [Example 77, 1-(3-((4-((4-([1,2,4]triazolo[1,5-a]pyridin-7-yloxy)-3-methylphenyl)amino)pyrrolo[2,1-f][1,2,4]triazin-5-yl)(methyl)amino)azetidin-1-yl)prop-2-en-1-one]"
–,–,–,< 200,< 200,1500 to 5000,Cc1cc(Nc2ncnn3ccc(C4CCN(C(=O)/C=C/CN5CC(F)C5)CC4)c23)ccc1Oc1ccn2ncnc2c1 [Example 163]
–,–,–,500 to 1500,< 200,1500 to 5000,"COC/C=C/C(=O)N1CCC(c2ccn3ncnc(Nc4ccc(Oc5ccn6ncnc6c5)c(C)c4)c23)CC1 [Example 58, (E)-1-(4-(4-((4-([1,2,4]triazolo[1,5-a]pyridin-7-yloxy)-3-methylphenyl)amino)pyrrolo[2,1-f][1,2,4]triazin-5-yl)piperidin-1-yl)-4-methoxybut-2-en-1-one]"
–,–,–,< 200,< 200,1500 to 5000,"Cc1cc(Nc2ncnn3ccc(N4CCC(N(C)C(=O)/C=C/CN(C)C)C4)c23)ccc1Oc1ccn2ncnc2c1 (stereo not drawn) [Example 70, (E)-N-(1-(4-((4-([1,2,4]triazolo[1,5-a]pyridin-7-yloxy)-3-methylphenyl)amino)pyrrolo[2,1-f][1,2,4]triazin-5-yl)pyrrolidin-3-yl)-4-(dimethylamino)-N-methylbut-2-enamide]"
–,–,–,500 to 1500,200 to 500,1500 to 5000,"COC1(c2ccn3ncnc(Nc4ccc(Oc5ccn6ncnc6c5)c(C)c4)c23)CCN(C(=O)/C=C/CN(C)C)CC1 [Example 52, (E)-1-(4-(4-((4-([1,2,4]triazolo[1,5-a]pyridin-7-yloxy)-3-methylphenyl)amino)pyrrolo[2,1-f][1,2,4]triazin-5-yl)-4-methoxypiperidin-1-yl)-4-(dimethylamino)but-2-en-1-one]"
–,–,–,< 200,< 200,1500 to 5000,"Cc1cc(Nc2ncnn3ccc(C4=CCN(C(=O)/C=C/CN(C)C)CC4)c23)ccc1Oc1ccn2ncnc2c1 [Example 53, (E)-1-(4-(4-((4-([1,2,4]triazolo[1,5-a]pyridin-7-yloxy)-3-methylphenyl)amino)pyrrolo[2,1-f][1,2,4]triazin-5-yl)-3,6-dihydropyridin-1(2H)-yl)-4-(dimethylamino)but-2-en-1-one]"
–,–,–,500 to 1500,200 to 500,1500 to 5000,"Cc1cc(Nc2ncnn3ccc(C4(O)CCN(C(=O)/C=C/CN(C)C)CC4)c23)ccc1Oc1ccn2ncnc2c1 [Example 50, (E)-1-(4-(4-((4-([1,2,4]triazolo[1,5-a]pyridin-7-yloxy)-3-methylphenyl)amino)pyrrolo[2,1-f][1,2,4]triazin-5-yl)-4-hydroxypiperidin-1-yl)-4-(dimethylamino)but-2-en-1-one]"
–,–,–,200 to 500,< 200,1500 to 5000,"C=CC(=O)NC1CCN(c2ccn3ncnc(Nc4ccc(Oc5ccn6ncnc6c5)c(C)c4)c23)C1 (stereo not drawn) [Example 79, N-(1-(4-((4-([1,2,4]triazolo[1,5-a]pyridin-7-yloxy)-3-methylphenyl)amino)pyrrolo[2,1-f][1,2,4]triazin-5-yl)pyrrolidin-3-yl)acrylamide]"
200 to 500,< 200,1500 to 5000,–,–,–,"Cc1cc(Nc2ncnn3ccc(C4CC5CCC4CN5C(=O)/C=C/CN(C)C)c23)ccc1Oc1ccn2ncnc2c1 (single isomer, unassigned; first eluting) [Examples 137 and 138, first eluting isomer]"
–,–,–,200 to 500,< 200,1500 to 5000,"C#CCN(C)C/C=C/C(=O)N1CCC(c2ccn3ncnc(Nc4ccc(Oc5ccn6ncnc6c5)c(C)c4)c23)CC1 [Example 59, (E)-1-(4-(4-((4-([1,2,4]triazolo[1,5-a]pyridin-7-yloxy)-3-methylphenyl)amino)pyrrolo[2,1-f][1,2,4]triazin-5-yl)piperidin-1-yl)-4-(methyl(prop-2-yn-1-yl)amino)but-2-en-1-one]"
–,–,–,500 to 1500,200 to 500,1500 to 5000,"Cc1cc(Nc2ncnn3ccc(C4CCN(C(=O)/C=C/CN5CC(F)C5)CC4)c23)ccc1Oc1ccc2c(c1)ncn2C [Example 162, (E)-4-(3-fluoroazetidin-1-yl)-1-(4-(4-((3-methyl-4-((1-methyl-1H-benzo[d]imidazol-5-yl)oxy)phenyl)amino)pyrrolo[2,1-f][1,2,4]triazin-5-yl)piperidin-1-yl)but-2-en-1-one]"
–,–,–,200 to 500,< 200,1500 to 5000,"Cc1cc(Nc2ncnn3ccc(C4CN(C(=O)/C=C/CN5CCC(F)(F)C5)C4)c23)ccc1Oc1ccn2ncnc2c1 [Example 84, (E)-1-(3-(4-((4-([1,2,4]triazolo[1,5-a]pyridin-7-yloxy)-3-methylphenyl)amino)pyrrolo[2,1-f][1,2,4]triazin-5-yl)azetidin-1-yl)-4-(3,3-difluoropyrrolidin-1-yl)but-2-en-1-one]"
–,–,–,< 200,< 200,1500 to 5000,"Cc1cc(Nc2ncnn3ccc(C4CN(C(=O)/C=C/CN5CCC(F)(F)CC5)C4)c23)ccc1Oc1ccn2ncnc2c1 [Example 85, (E)-1-(3-(4-((4-([1,2,4]triazolo[1,5-a]pyridin-7-yloxy)-3-methylphenyl)amino)pyrrolo[2,1-f][1,2,4]triazin-5-yl)azetidin-1-yl)-4-(4,4-difluoropiperidin-1-yl)but-2-en-1-one]"
–,–,–,1500 to 5000,500 to 1500,1500 to 5000,"Cc1cc(Nc2ncnn3ccc(C4CCN(C(=O)/C=C/CN)CC4)c23)ccc1Oc1ccn2ncnc2c1 [Example 150, (E)-1-(4-(4-((4-([1,2,4]triazolo[1,5-a]pyridin-7-yloxy)-3-methylphenyl)amino)pyrrolo[2,1-f][1,2,4]triazin-5-yl)piperidin-1-yl)-4-aminobut-2-en-1-one]"

SMILES,IC50 (BaF3_HER2YVMA cells) [nM],IC50 (BaF3_HER2WT cells) [nM],IC50 (BaF3_EGFRWT cells) [nM],IC50 (BaF3_HER2YVMA cells; 72 h) [nM],IC50 (BaF3_HER2WT cells; 72 h) [nM],IC50 (BaF3_EGFRWT cells; 72 h) [nM]
"C=C(CN(C)C)C(=O)N1C2C=C(c3ccn4ncnc(Nc5ccc(Oc6ccn7ncnc7c6)c(C)c5)c34)CC1CC2 (stereo not drawn) [Example 30, 1-(3-(4-((4-([1,2,4]triazolo[1,5-a]pyridin-7-yloxy)-3-methylphenyl)amino)pyrrolo[2,1-f][1,2,4]triazin-5-yl)-8-azabicyclo[3.2.1]oct-2-en-8-yl)-2-((dimethylamino)methyl)prop-2-en-1-one acetate]",–,–,–,< 200,< 200,1500 to 5000
"Cc1cc(Nc2ncnn3ccc(C4=CCN(C(=O)/C=C/CN(C)C)C4)c23)ccc1Oc1ccn2ncnc2c1 [Example 29, (E)-1-(3-(4-((4-([1,2,4]triazolo[1,5-a]pyridin-7-yloxy)-3-methylphenyl)amino)pyrrolo[2,1-f][1,2,4]triazin-5-yl)-2,5-dihydro-1H-pyrrol-1-yl)-4-(dimethylamino)but-2-en-1-one acetate]",–,–,–,1500 to 5000,< 200,1500 to 5000
"C=CC(=O)N1CCC2CCC(C1)N2c1ccn2ncnc(Nc3ccc(Oc4ccn5ncnc5c4)c(C)c3)c12 (stereo not drawn) [Example 55, 1-(9-(4-((4-([1,2,4]triazolo[1,5-a]pyridin-7-yloxy)-3-methylphenyl)amino)pyrrolo[2,1-f][1,2,4]triazin-5-yl)-3,9-diazabicyclo[4.2.1]nonan-3-yl)prop-2-en-1-one]",–,–,–,500 to 1500,< 200,1500 to 5000
"C=CC(=O)N1CC2CCC(C1)N2c1ccn2ncnc(Nc3ccc(Oc4ccn5ncnc5c4)c(C)c3)c12 [Example 44, 1-(8-(4-((4-([1,2,4]triazolo[1,5-a]pyridin-7-yloxy)-3-methylphenyl)amino)pyrrolo[2,1-f][1,2,4]triazin-5-yl)-3,8-diazabicyclo[3.2.1]octan-3-yl)prop-2-en-1-one]",–,–,–,< 200,< 200,1500 to 5000
